Results on 7 compounds are retold here after patent US9932646B2, “Detection and use of antiviral resistance mutations” (ABL SA, priority 2006, dated 2018).

Entries after “also recorded” stand apart in the source; their conditions may differ. Counter-ions that a name gives are not always drawn.

The nature of experiment [1]: ALT in patients during antiviral therapy. The format is in vivo, human. As to conditions: Patient G, ADV therapy.
Experiment [2] concerns HBV. In words: Clinical response / resistance of HBV patients to nucleoside or nucleotide analog treatment. Format: in vivo, human. An excerpt:
The present invention is predicated in part on the identification and isolation of nucleoside or nucleotide analog-resistant variants of HBV following treatment of patients with either ADV or LMV or ETV or more particularly ADV and LMV or TFV and LMV, or ETV and optionally one or more other nucleoside analogs or nucleotide analogs or other anti-HBV agents such as TFV, LdT, or FTC. […] Reference herein to “decreased” or “reduced” in relation to sensitivity to ADV and/or LMV and/or FTC and/or TFV and/or ETV includes and encompasses a complete or substantial resistance to the nucleoside or nucleotide analog or other anti-HBV agents as well as partial resistance and includes a replication rate or replication efficiency which is more than a wild-type in the presence of a nucleoside or nucleotide analog or other anti-HBV agents. In one aspect, this is conveniently measured by an increase in viral load during treatment, or alternatively, there is no substantial decrease in HBV DNA viral load from pre-treatment HBV DNA levels during treatment (i.e., non-response to treatment).
Hepatitis B surface antigen (HBsAg), hepatitis B e antigen (HBeAg), anti-HBe and hepatitis B core antigen (HBcAg) specific IgG and IgM were measured using commercially available immunoassays (Abbott Laboratories, North Chicago, Ill., USA). Hepatitis B viral DNA levels were measured using a capture hybridization assay according to the manufacturer's directions (Digene Hybrid Capture II, Digene Diagnostics Inc., Beltsville, Md.). The manufacturers stated cut-off for detecting HBV viremia in clinical specimens was 0.7×10^6 copies/ml or 2.5 pg/ml, [Hendricks et al, Am J Clin Pathol 104:537-46, 1995]. HBV DNA levels can also be quantitated using other commercial kits such as Cobas amplification HBV monitor kit (Roche). […]
The specific amplified products were purified using PCR purification columns from MO BIO Laboratories Inc (La Jolla, Calif.) and directly sequenced using Big Dye terminator Cycle sequencing Ready Reaction Kit (Perkin Elmer, Cetus Norwalk, Conn.). […]

The test system of experiment [3] is HBV. As to conditions: cited from earlier work.
For experiment [4], the system named is HBV. As to conditions: cited from earlier work. The source holds these as a separate data set.
Experiment [5] concerns HIV. As to conditions: cited from earlier work.

Take `CC(C)(C)C(=O)OCOP(=O)(COCCn1cnc2c(N)ncnc21)OCOC(=O)C(C)(C)C` [ADV, adefovir dipivoxil]: in experiment [1], the ALT worked out at 467 IU/ml. In experiment [2] (human, in vivo), the response to treatment entry is reported as “resistant; also recorded: did not respond”. The “clinical activity against both wild-type and lamivudine-resistant strains of HBV” value in experiment [3] (in vivo) is recorded as “demonstrated clinical activity”. The “mean decrease in viremia” value in experiment [3] (phase II studies, 30 mg daily dose, over 12 weeks) was 4 log10. Besides, the “inhibition of HBV replication” value in experiment [4] is reported as “potent inhibitor”.

As for `C=C1[C@H](CO)[C@@H](O)C[C@@H]1n1cnc2c(=O)[nH]c(N)nc21` [ETV, entecavir], the response to treatment result in experiment [2] (Patient H, sequential then combination treatment) was “resistant”; in experiment [2] (Patient J, previously treated with LMV, then ADV, then ETV), “did not respond”.

On to `Nc1nc(=O)n([C@@H]2CS[C@H](CO)O2)cc1F` [FTC, (−)-β-L-2′-3′-dideoxy-5-fluoro-3′-thiacydidine], for which the “activity against HBV” value in experiment [4] is “activity”. Moreover, the “activity against HIV” value in experiment [5] was “activity”.

In the case of `Nc1ncnc2c1ncn2C1CC(O)C(CO)O1` [LdA, beta-L-2′-deoxyadenosine], the “activity against HBV” value in experiment [4] is listed as “activity”.

With `Nc1ccn([C@@H]2C[C@@H](O)[C@H](CO)O2)c(=O)n1` [LdC, beta-L-2′-deoxycytidine], the “activity against HBV” value in experiment [4] is recorded as “activity”.

Regarding `Cc1cn([C@@H]2C[C@@H](O)[C@H](CO)O2)c(=O)[nH]c1=O` [LdT, beta-Lthymidine], in experiment [4], the “activity against HBV” value is “activity”.

Regarding `CC(C)OC(=O)OCOP(=O)(CO[C@H](C)Cn1cnc2c(N)ncnc21)OCOC(=O)OC(C)C` [TFV, tenofovir disoproxil fumarate], in experiment [4], the “activity against HBV” value was “antiviral activity” and the “inhibition of HBV replication” value is listed as “potent inhibitor”. Further, the “activity against HIV” value in experiment [5] is “antiviral activity”.
